In series [1] the test system is SK-OV-3 cells. In words: cells. The conditions noted are these: Homo sapiens, SK-OV-3, 96 h.
The test system of series [2] is WM266.4 cells. The note with it: WM266.4, 30 h.
The target in series [3] is recombinant human pirin (Homo sapiens, UniProt O00625).
Series [4] deals with SK-OV-3 cells.
Series [5] is described as follows: in vivo. The note with it: female, mouse, po, 20 mg/kg.
Series [6] is described as follows: in vivo. The note with it: female, BALB/c, mouse, 5 mg/kg; for AUC(0-inf): AUCinf; for AUC(0-t): AUClast.
Experimental: Experimental work was done in accordance with Home Office regulations under the
UK National Cancer Research CR I Guidelines with local Ethical Committee approval.9
Female BALB/c and Ncr-Foxn1nu mice were obtained from Charles River (Margate, UK).
Animals were adapted to laborator y conditions for at least 1 week prior to dosing and were
allowed food and water ad libitum. Compounds were administered iv or po (0.1 m L/10 g) in
hydrox yprop yl beta c ycl odextrin in 50 mM sodium citrate buff er (Ncr-Foxn1nu PK). Blood
spotted onto Whatman FTA-DMPK B cards (VWR) together with a calibration curve and
qualit y controls spiked in control blood. Cards were allowed to dr y at room temperature for at
least 2 h. 6 mm discs were punched from the cards and extracted with 200 µ L methanol
containing 500 nM olo moucine as an internal standard. Following centrifugation, extracts
were anal yzed b y multiple reaction monitoring of precursor and product ions by LC-ES I-
% formic acid and methanol on a Phenomenex (Macclesfi eld, UK) Kinet exTM C18, 5 cm x
2.6 µ m, 2.1 mm i.d UHP LC column. Pharmac okinetic parameters were derived from non -
For series [7], the system named is SK-OV-3 human ovarian carcinoma xenograft. The note with it: female, NCr athymic, mouse, in vivo.
Series [8] in a line: physchem. The note with it: pH 7.4.
Setting [9] is: read-out: SK-OV-3 pGI50±SEM (converted).

“And” between values parts separate entries of the source, which are not always exact repeats. Equal values may be shown once. Read-outs that look alike come from different tables or passages of the source.

recombinant human pirin, sequence (O00625 whole entry): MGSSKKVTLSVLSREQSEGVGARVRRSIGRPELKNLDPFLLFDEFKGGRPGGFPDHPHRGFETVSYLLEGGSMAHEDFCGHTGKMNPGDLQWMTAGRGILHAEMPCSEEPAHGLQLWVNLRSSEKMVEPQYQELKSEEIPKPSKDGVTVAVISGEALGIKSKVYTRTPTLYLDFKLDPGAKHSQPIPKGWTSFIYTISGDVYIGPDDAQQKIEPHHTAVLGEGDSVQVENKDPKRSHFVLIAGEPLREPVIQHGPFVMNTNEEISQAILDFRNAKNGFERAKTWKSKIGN

In the case of `Cc1ccc2cc(C(=O)Nc3c(C)ccc(NC(=O)c4ccc5c(c4)OCCO5)c3C)ccc2n1` [Compound 11, N-(3-(2,3-Dihydrobenzo[b][1,4]dioxine-6-carboxamido)-2,6-dimethylphenyl)-2-methylquinoline-6-carboxamide], the GI50 in series [1] (read-out: SK-OV-3 GI50) and in series [1] (setting [9]) was greater than 1000 nM each time.
For the molecule `Cc1ccc(NC(=O)c2cccc3c2OCCO3)cc1NC(=O)c1ccc2nc(OCCN3CCCC3)ccc2c1` [Compound 28, N-(5-(2,3-Dihydrobenzo[b][1,4]dioxine-5-carboxamido)-2-methylphenyl)-2-(2-(pyrrolidin-1-yl)ethoxy)quinoline-6-carboxamide], in series [2], the antimigratory activity entry is “no measurable antimigratory activity”. The GI50 in series [1] (read-out: SK-OV-3 GI50) and in series [1] (setting [9]) was greater than 1000 nM each time. Also, the “AS (apparent stoichiometry)” value in series [3] was 1.18 and 1.11 and 1.80. Further, the “SK-OV-3 pGI50±SEM” value in series [4] was less than 6.
In the case of `Cc1ccc(NC(=O)c2ccc3c(c2)OCCO3)cc1NC(=O)c1ccc2nc(OCCCN(C)C)ccc2c1` [Compound 22, N-(5-(2,3-Dihydrobenzo[b][1,4]dioxine-6-carboxamido)-2-methylphenyl)-2-(3-(dimethylamino)propoxy)quinoline-6-carboxamide], the GI50 in series [1] (read-out: SK-OV-3 GI50) is 1.1 nM; in series [1] (setting [9]) it was 1.15 nM.
In the same order, the values of `CCC(=O)NCCOc1ccc2cc(C(=O)Nc3cc(NC(=O)c4ccc5c(c4)OCCO5)ccc3C)ccc2n1` [Compound 27] are 9.1 nM and 9.12 nM.
`Cc1ccc2cc(C(=O)Nc3cc(NC(=O)c4ccc5c(c4)OCCO5)c(C)cc3C)ccc2n1` [Compound 12, N-(5-(2,3-Dihydrobenzo[b][1,4]dioxine-6-carboxamido)-2,4-dimethylphenyl)-2-methylquinoline-6-carboxamide]: the GI50 in series [1] (read-out: SK-OV-3 GI50) and in series [1] (setting [9]) was greater than 1000 nM throughout.
On to `COCCOc1ccc2cc(C(=O)Nc3cc(NC(=O)c4ccc5c(c4)OCCO5)ccc3C)ccc2n1` [Compound 21, N-(5-(2,3-Dihydrobenzo[b][1,4]dioxine-6-carboxamido)-2-methylphenyl)-2-(2-methoxyethoxy)quinoline-6-carboxamide], for which the GI50 in series [1] (read-out: SK-OV-3 GI50) is 4.3 nM; in series [1] (setting [9]) it was 4.27 nM.
As usually defined, the AUC(0-inf) is the area under the concentration-time curve extrapolated to infinity. A word on the AUC(0-t): it is the area under the concentration-time curve up to a stated or last time point. As usually defined, the Cmax is the highest concentration seen after dosing. In general, half-life refers to how long it takes for the measured level to halve. A low value points to rapid decline. What is called clearance is the rate of elimination divided by the concentration. As a reminder, the Vd is a proportionality between amount in the body and measured concentration, not a real space. What is called chromatographic logD is a lipophilicity value derived from retention on a column. Higher therefore signals a more lipophilic compound. On to `Cc1ccc(NC(=O)c2ccc3c(c2)OCCO3)cc1NC(=O)c1ccc2nc(OCCN3CCCC3)ccc2c1` [Compound 26, N-(5-(2,3-Dihydrobenzo[b][1,4]dioxine-6-carboxamido)-2-methylphenyl)-2-(2-(pyrrolidin-1-yl)ethoxy)quinoline-6-carboxamide], for which the AUC(0-inf) in series [5] (Ncr-Foxn1nu (athymic), AUCinf) is 1.58 µM·h; in series [6] (iv) it was 14.8 µM·h; in series [6] (po), 6.09 µM·h. The AUC(0-t) in series [5] (Ncr-Foxn1nu (athymic), AUClast) was found to be 1.53 µM·h; in series [6] (iv) it was 14.1 µM·h; in series [6] (po) it was 5.02 µM·h. Also, the Cmax in series [5] (Ncr-Foxn1nu (athymic), Cmax) is 439 nM; in series [6] (iv), 3830 nM; in series [6] (po), 828 nM. Besides, the AUC(0-t) at 24 h in series [5] (athymic (Ncr-Foxn1nu), AUC0–24h PO) was determined as 1.9 µM·h; in series [6] (po, AUC0–24h PO), 5.8 µM·h. The same molecule gave a half-life at 24 h in series [6] of 5.3 h. The molecule further registered a clearance in series [6] (iv, Cl) of 9.8 mL/min/kg. The Vd in series [6] (iv, Vss) came out at 3.26 L/kg; in series [6] (iv, Vz), 5.78 L/kg. Besides, the Vd at 24 h in series [6] (iv, Vss) is 4.2 L/kg. The same molecule gave a clearance at 24 h in series [6] (iv, blood Cl) of 9.2 mL/min/kg. Besides, the total tumor concentrations in series [7] is listed as no more than 940 nM. In series [8], this molecule had a chromatographic logD of 2.1.
Turning to `Cc1ccc(NC(=O)c2ccc3c(c2)OCCO3)cc1NC(=O)c1ccc2ncccc2c1` [Compound 15, N-(5-(2,3-Dihydrobenzo[b][1,4]dioxine-6-carboxamido)-2-methylphenyl)quinoline-6-carboxamide], the GI50 was 8.6 nM in series [1] (read-out: SK-OV-3 GI50) and 2.51 nM in series [1] (setting [9]).
In the same order, the values of `Cc1ccc2cc(C(=O)Nc3cc(NC(=O)c4cccc5c4OCCO5)ccc3C)ccc2n1` [Compound 6, N-(5-(2,3-Dihydrobenzo[b][1,4]dioxine-5-carboxamido)-2-methylphenyl)-2-methylquinoline-6-carboxamide] are greater than 1000 nM and greater than 1000 nM.
As to `Cc1ccc(NC(=O)c2ccc3c(c2)OCCO3)cc1NC(=O)c1ccc2nc(OCCCN3CCOCC3)ccc2c1` [Compound 23, N-(5-(2,3-Dihydrobenzo[b][1,4]dioxine-6-carboxamido)-2-methylphenyl)-2-(3-morpholinopropoxy)quinoline-6-carboxamide], the results for the GI50 in series [1] (read-out: SK-OV-3 GI50) and in series [1] (setting [9]) were 7.4 nM and 7.41 nM, respectively.
For the molecule `Cc1ccc(NC(=O)c2ccc3c(c2)OCCO3)cc1NC(=O)c1ccc2nc(OCCN)ccc2c1` [Compound 29, 2-(2-Aminoethoxy)-N-(5-(2,3-dihydrobenzo[b][1,4]dioxine-6-carboxamido)-2-methylphenyl)quinoline-6-carboxamide], the GI50 in series [1] (read-out: SK-OV-3 GI50) is 3.1 nM; in series [1] (setting [9]), 3.09 nM.
In the same order, the values of `Cc1ccc2cc(C(=O)Nc3cc(NS(=O)(=O)c4ccc5c(c4)OCCO5)ccc3C)ccc2n1` [Compound 14, N-(5-(2,3-Dihydrobenzo[b][1,4]dioxine-6-sulfonamido)-2-methylphenyl)-2-methylquinoline-6-carboxamide] are greater than 1000 nM and greater than 1000 nM.
In the case of `Cc1ccc(NC(=O)c2ccc3c(c2)OCCO3)cc1NC(=O)c1ccc2nc(OCCN3CCCCC3)ccc2c1` [Compound 25, N-(5-(2,3-Dihydrobenzo[b][1,4]dioxine-6-carboxamido)-2-methylphenyl)-2-(2-(piperidin-1-yl)ethoxy)quinoline-6-carboxamide], the GI50 in series [1] (read-out: SK-OV-3 GI50) is 1.1 nM.

These data come from article PMC6014687 (Journal of Medicinal Chemistry, 2016).
